Source: patent publication US20230355647A1, “Marker for determining anti-cancer effects of mitochondrial oxidative phosphorylation pathway inhibitor” (NANJING SHIJIANG MEDICINE TECHNOLOGY CO., LTD, priority 2020, published 2023)

What was measured:
NCI-H82 = test: Cell viability (CellTiter-Glo), NCI-H82; type: cell-based; settings: Homo sapiens; NCI-H82 cell line, 3-4 days of culture
Protocol: (§1) Cell viability was detected using the Promega CellTiter-Glo kit, the kit reflected cell viability by directly measuring intracellular ATP content. The inhibitory effect (IC50 value) of Gboxin, a mitochondrial oxidative phosphorylation pathway inhibitor, on different tumor cell lines was tested in the Example. The name, source, and culture condition of each tumor cell line were as follows: Cell line NCI-H82 (ATCC, No. HTB-175) was cultured in 10% fetal bovine serum-containing RPMI1640 medium (+P/S). […] Cell viability was detected using the Promega CellTiter-Glo kit, the kit reflected cell viability by directly measuring intracellular ATP content.

G-401 = test: Cell viability (CellTiter-Glo), G-401; type: cell-based; settings: Homo sapiens; G-401 cell line, 3-4 days of culture
Protocol: as §1, with “G-401” for “NCI-H82”, “CRL-1441)” for “HTB-175)”, “McCoy's 5a” for “RPMI1640”

WSU-DLCL2 = test: Cell viability (CellTiter-Glo), WSU-DLCL2; type: cell-based; settings: Homo sapiens, WSUDLCL2; WSU-DLCL2 cell line, 3-4 days of culture
Protocol: as §1, with “WSU-DLCL2 (DSMZ,” for “NCI-H82 (ATCC,”, “ACC-575)” for “HTB-175)”

ATN-1 = test: Cell viability (CellTiter-Glo), ATN-1; type: cell-based; settings: Homo sapiens; ATN-1 cell line, 3-4 days of culture
Protocol: (§2) Cell viability was detected using the Promega CellTiter-Glo kit, the kit reflected cell viability by directly measuring intracellular ATP content. The inhibitory effect (IC50 value) of Gboxin, a mitochondrial oxidative phosphorylation pathway inhibitor, on different tumor cell lines was tested in the Example. The name, source, and culture condition of each tumor cell line were as follows:
Cell line ATN-1 (RIKEN, No. RBRC-RCB1440) was cultured in RPMI1640 medium containing 10% fetal bovine serum and 0.1 mM NEAA (+P/S).
(§3) The above tumor cells were cultured in the relevant medium (+P/S), and incubated for 3 h, then the gradient diluted Gboxin was added, and IC50 (50% inhibiting concentration) was measured after 3-4 days of culture.

G-402 = test: Cell viability (CellTiter-Glo), G-402; type: cell-based; settings: Homo sapiens; G-402 cell line, 3-4 days of culture
Protocol: as §2
Cell line G-402 (ATCC, No. CRL-1440) was cultured in 10% fetal bovine serum-containing McCoy's 5a medium (+P/S).
as §3

G-361 = test: Cell viability (CellTiter-Glo), G-361; type: cell-based; settings: Homo sapiens; G-361 cell line, 3-4 days of culture
Protocol: as §2
Cell line G-361 (ATCC, No. CRL-1424) was cultured in 10% fetal bovine serum-containing McCoy's 5a medium (+P/S).
as §3

U-937 = test: Cell viability (CellTiter-Glo), U-937; type: cell-based; settings: Homo sapiens; U-937 cell line, 3-4 days of culture
Protocol: as §2
Cell line U-937 (ATCC, No. CRL-1593.2) was cultured in 10% fetal bovine serum-containing RPMI1640 medium (+P/S).
as §3

A-375 = test: Cell viability (CellTiter-Glo), A-375; type: cell-based; settings: Homo sapiens; A-375 cell line, 3-4 days of culture
Protocol: as §2
Cell line A-375 (ATCC, No. CRL-1619) was cultured in 10% fetal bovine serum-containing DMEM medium (+P/S).
as §3

D283 Med = test: Cell viability (CellTiter-Glo), D283 Med; type: cell-based; settings: Homo sapiens; D283 Med cell line, 3-4 days of culture
Protocol: as §2
Cell line D283 Med (ATCC, No. HTB-185) was cultured in 10% fetal bovine serum-containing EMEM medium (+P/S).
as §3

LS 180 = test: Cell viability (CellTiter-Glo), LS 180; type: cell-based; settings: Homo sapiens, LS180; LS 180 cell line, 3-4 days of culture
Protocol: as §2
Cell line LS 180 (ATCC, No. CL-187) was cultured in 10% fetal bovine serum-containing EMEM medium (+P/S).
as §3

ACHN = test: Cell viability (CellTiter-Glo), ACHN; type: cell-based; settings: Homo sapiens; ACHN cell line, 3-4 days of culture
Protocol: as §2
Cell line ACHN (ATCC, No. CRL-1611) was cultured in 10% fetal bovine serum-containing EMEM medium (+P/S).
as §3

NCI-H196 = test: Cell viability (CellTiter-Glo), NCI-H196; type: cell-based; settings: NCI-H196 cell line, 3-4 days of culture
Protocol: as §2
Cell line NCI-H196 (ATCC, No. CRL-5823) was cultured in 10% fetal bovine serum-containing RPMI1640 medium (+P/S).
as §3

mTOR pathway (p-S6) = test: Western Blot of p-S6 protein in tumor cells after inhibitor treatment; type: cell-based, human; settings: 1 μM or 3 μM Gboxin, 1 μM Oligomycin A, 12 h; for activity of mTOR pathway (p-S6): FIG. 3; for content of p-S6 protein (activity of mTOR pathway): FIG. 2
Protocol: The inhibition of mitochondrial oxidative phosphorylation pathway could cause the activation of ATF4 stress pathway and the decrease of mTOR pathway activity, the activity of the mTOR pathway was reflected by the expression level of phosphorylated ribosomal protein S6 (ie, p-S6).
(§4) The tumor cells NCI-H82, G-401 and WSU-DLCL2 were cultured in the relevant 10% FBS-containing medium (+p/s), and incubated overnight, then 1 μM Gboxin, 3 μM Gboxin or 1 μM Oligomycin A as shown in FIG. 2 was added. After 12 h of incubation, the content of ATF4 and p-S6 protein was detected using Western Blot, the experiment result was shown in FIG. 2.
as §4, with “The cell lines SF126, CFPAC-1” for “The tumor cells NCI-H82, G-401”, “and 786-O” for “and WSU-DLCL2”, “FIG. 3” for “FIG. 2”, “FIG. 3.” for “FIG. 2.”

## CCc1n(CC(=O)O[C@@H]2C[C@H](C)CC[C@H]2C(C)C)c2ccccc2[n+]1C.[Cl-] [Gboxin]
NCI-H82
  IC50: 0.398 µM
G-401
  IC50: 0.777 µM
WSU-DLCL2
  IC50: 0.682 µM
ATN-1
  IC50: 1.55 µM
G-402
  IC50: 2.82 µM
G-361
  IC50: 3.88 µM
U-937
  IC50: 4.06 µM
A-375
  IC50: 4.65 µM
D283 Med
  IC50: 4.81 µM
LS 180
  IC50: 8.9 µM
ACHN
  IC50: 16.6 µM
NCI-H196
  IC50: 19.3 µM
mTOR pathway (p-S6); 786-O cells
  activity of mTOR pathway (p-S6): no significant changes
mTOR pathway (p-S6); CFPAC-1 cells
  activity of mTOR pathway (p-S6): no significant changes
mTOR pathway (p-S6); G-401 cells
  content of p-S6 protein (activity of mTOR pathway): decreased
mTOR pathway (p-S6); NCI-H82 cells
  content of p-S6 protein (activity of mTOR pathway): decreased
mTOR pathway (p-S6); SF126 cells
  activity of mTOR pathway (p-S6): no significant changes
mTOR pathway (p-S6); WSU-DLCL2 cells
  content of p-S6 protein (activity of mTOR pathway): decreased
